According to ChEMBL document CHEMBL1147435, “Synthesis and antibiotic activity of the tricyclic furo[3,2-c] isochromen-2-trione unit of the pyranonaphthoquinones” (2004):
In brackets after ≈: the same amount, converted by molar mass.

What was measured:
Assay type in all cases: functional
Staphylococcus aureus [1] = assay: Minimum inhibitory concentration of compound against Staphylococcus aureus
Bacillus subtilis [2] = assay: Minimum bactericidal concentration of compound against Bacillus subtilis
Staphylococcus aureus [3] = assay: Minimum bactericidal concentration of compound against Staphylococcus aureus
Bacillus subtilis [4] = assay: Minimum inhibitory concentration of compound against Bacillus subtilis

MIC (Staphylococcus aureus [1]) [µg/mL] | MIC (Bacillus subtilis [4]) [µg/mL] | Structure (SMILES) | MBC (Bacillus subtilis [2]) [µg/mL] | MBC (Staphylococcus aureus [3]) [µg/mL]
64 (≈ 256 µM) | 32 (≈ 128 µM) | COC1=CC(=O)C2=C(COC3CC(=O)OC23)C1=O (stereo not drawn) | 128 (≈ 512 µM) | > 128
128 (≈ 511 µM) | 128 (≈ 511 µM) | COc1ccc2c(c1OC)COC1CC(=O)OC21 (stereo not drawn) | > 128 | > 128
